One assay deals with porcine collagen. Put plainly: Anti-glycation assay, AGEs formation due to collagen glycation with fructose. The class given is biochemical. The settings on record: 100 μg/mL aqueous solution, 50° C., 24 hours. Here is the method: In order to evaluate the anti-glycation activity of the green mango extract, an anti-glycation assay was performed to determine the inhibitory effect of the green mango extract described in Example 1 on glycation of porcine collagen. Briefly, a 60 mg/mL collagen solution (containing 0.06% sodium azide) and a 1.5 M fructose solution were first prepared using a 200 mM phosphate buffer (pH 7.4). For collagen to undergo glycation, a mixture of 0.2 mL of the collagen solution and 0.2 mL of the fructose solution was mixed thoroughly with 0.2 mL of the green mango extract sample at 140, 70, 14, 1.4, or 0.14 mg/mL (diluted with deionized water), or mixed with deionized water (as a control). The reaction mixtures were incubated at 50° C. for 24 hours. Thereafter, aminoguanidine (AG, purchased from Sigma) was added to terminate the glycation reaction. […] The reaction mixtures were incubated at 50° C. for 24 hours, and the fluorescence intensity of each of the mixtures (0.1 mL) at 0 hours and 24 hours was measured to calculate the rate of AGEs formation due to collagen glycation.

In the next assay the test system is melanoma cells B16F10. Put plainly: Melanin production assay in melanoma cells B16F10. The class given is cell-based, mouse. The following applies: 0.25 mg/mL, 48 hours. Here is the method: The melanin levels in B 16F10 melanoma cells were determined according to procedures described below. Cells were harvested from the cell culture treated as indicated. The cells were washed with PBS and treated with trypsin for 3 minutes. The suspended cells were collected by centrifugation (400×g, 5 minutes), washed twice with PBS, and then resuspended in 200 μL of PBS. The cell suspension was frozen in liquid nitrogen for 10 minutes and then left at room temperature for about 30 minutes until completely thawed, followed by centrifugation (12,000 g, 3 minutes) to remove the supernatant. The remaining cell pellet was mixed thoroughly with 120 μL of 1 N sodium hydroxide aqueous solution, and heated at 60° C. for 1 hour to obtain a cell lysate containing dissolved melanin. 100 μL of the cell lysate was transferred to a 96-well plate, and the absorbance at 450 nm (OD450) was measured using an enzyme-linked immunosorbent assay (ELISA) reader (BioTek). The relative melanin level is calculated according to the following formula: Relative melanin level (%)=(OD450each group/OD450mock control)×100% In order to examine the effect of the green mango extract on melanin production, the melanoma cells B16F10 was assayed for melanin production after treatment with the green mango extract described in Example 1. […]

The structures appear in SMILES notation.

`O=C(OCC1OC(OC(=O)c2cc(O)c(O)c(O)c2)C(OC(=O)c2cc(O)c(O)c(O)c2)C(OC(=O)c2cc(O)c(O)c(O)c2)C1OC(=O)c1cc(O)c(O)c(O)c1)c1cc(O)c(O)c(O)c1` (stereo not drawn) [formula (II)]: the “AGEs formation compared to the control” value with porcine collagen is given as approximately 73.7%.
As for `O=c1cc(CO)occ1O` [kojic acid], the “inhibitory effect on melanin production, green mango extract versus kojic acid at the same concentration” value in the assay on melanoma cells B16F10 is on record as “comparable”.
As to `O=C(OCC1OC(OC(=O)c2cc(O)c(O)c(O)c2)C(OC(=O)c2cc(O)c(O)c(O)c2)C(OC(=O)c2cc(O)c(O)c(O)c2)C1OC(=O)c1cc(O)c(O)c(O)c1)c1ccc(O)cc1` (stereo not drawn) [formula (I)], the “AGEs formation compared to the control” value in the assay with porcine collagen is “about 60.2%”.

The values are drawn from US20210069272A1, “METHODS FOR SKIN WHITENING, ULTRAVIOLET RADIATION PROTECTION AND SUPPRESSION OF GLYCATION USING GREEN MANGO EXTRACTS AND COMPOUNDS OBTAINED THEREFROM” (TCI CO., LTD., priority 2019, published 2021).
